For the data set, the target named is T1, alpha-1 adrenergic receptor (Rattus norvegicus, UniProt P15823+P23944+P43140).
T1 sequence (P15823 whole entry): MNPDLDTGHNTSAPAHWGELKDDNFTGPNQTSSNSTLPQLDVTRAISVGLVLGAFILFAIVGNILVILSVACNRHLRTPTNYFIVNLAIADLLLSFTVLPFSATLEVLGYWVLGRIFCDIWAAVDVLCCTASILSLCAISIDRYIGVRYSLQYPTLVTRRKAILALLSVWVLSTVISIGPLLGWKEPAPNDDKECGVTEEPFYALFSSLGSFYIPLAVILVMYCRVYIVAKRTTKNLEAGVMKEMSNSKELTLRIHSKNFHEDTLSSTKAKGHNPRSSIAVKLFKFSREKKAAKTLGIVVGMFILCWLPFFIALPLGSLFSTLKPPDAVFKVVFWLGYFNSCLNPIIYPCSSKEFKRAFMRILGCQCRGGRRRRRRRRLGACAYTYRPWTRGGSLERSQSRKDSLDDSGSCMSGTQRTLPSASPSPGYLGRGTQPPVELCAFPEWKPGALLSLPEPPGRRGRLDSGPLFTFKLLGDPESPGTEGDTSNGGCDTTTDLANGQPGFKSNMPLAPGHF
T1 sequence (P23944 whole entry): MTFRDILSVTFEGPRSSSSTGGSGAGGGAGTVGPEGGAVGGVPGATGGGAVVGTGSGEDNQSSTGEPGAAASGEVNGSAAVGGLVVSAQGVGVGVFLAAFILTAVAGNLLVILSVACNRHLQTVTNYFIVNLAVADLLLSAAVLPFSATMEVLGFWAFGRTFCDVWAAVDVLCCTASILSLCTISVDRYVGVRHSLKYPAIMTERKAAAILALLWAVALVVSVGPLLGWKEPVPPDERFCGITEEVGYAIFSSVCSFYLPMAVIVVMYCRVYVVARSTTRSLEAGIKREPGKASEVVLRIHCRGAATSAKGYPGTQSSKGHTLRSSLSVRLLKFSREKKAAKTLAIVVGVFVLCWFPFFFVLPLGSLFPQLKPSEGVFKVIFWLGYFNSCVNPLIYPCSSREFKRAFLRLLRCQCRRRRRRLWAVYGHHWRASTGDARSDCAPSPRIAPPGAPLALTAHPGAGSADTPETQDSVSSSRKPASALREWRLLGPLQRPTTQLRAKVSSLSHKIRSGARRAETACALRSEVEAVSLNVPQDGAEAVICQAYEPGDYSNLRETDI
T1 sequence (P43140 whole entry): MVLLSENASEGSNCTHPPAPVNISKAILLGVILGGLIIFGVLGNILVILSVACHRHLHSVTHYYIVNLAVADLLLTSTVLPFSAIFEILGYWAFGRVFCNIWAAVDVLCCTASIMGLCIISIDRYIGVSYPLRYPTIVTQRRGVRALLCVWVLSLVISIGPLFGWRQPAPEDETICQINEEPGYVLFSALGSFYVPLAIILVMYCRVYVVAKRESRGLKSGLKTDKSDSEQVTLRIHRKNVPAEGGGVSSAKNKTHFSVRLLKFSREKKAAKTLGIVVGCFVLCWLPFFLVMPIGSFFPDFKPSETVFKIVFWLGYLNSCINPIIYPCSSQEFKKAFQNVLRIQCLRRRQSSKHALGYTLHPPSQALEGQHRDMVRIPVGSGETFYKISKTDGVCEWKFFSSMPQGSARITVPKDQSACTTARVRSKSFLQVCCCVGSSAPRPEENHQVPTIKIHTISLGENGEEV
The data set is described as follows: Displacement of [3H]prazosin from rat brain alpha-1 adrenergic receptor at 1 uM after 60 mins by scintillation counting relative to control. As to conditions: rat brain alpha-1 adrenergic receptor preparation, probe [3H]prazosin.

Molecules are shown by their SMILES.

`CCc1nc2c(N3CCNCC3)ccnc2n1Cc1cccc(F)c1` showed an inhibition at 1 h, 1 µM of 0.2%.

For orientation: inhibition means the drop in the measured response relative to a control, in per cent.
